# Data from article PMC12454639, “Direct disassembly of α-syn preformed fibrils into α-syn monomers by an all-D-peptide” (NPJ Parkinson's Disease, 2025).
# Entries after “also recorded” stand apart in the source; their conditions may differ. Read-outs that look alike come from different tables or passages of the source. Square brackets hold non-standard residues; d marks the D form. Peptide text beside a SMILES is read from it.
# Legend:
# [1] = test system: α-syn monomer; assay: De novo ThT aggregation assay (10 µM α-syn); assay type: biochemical; conditions: 37 °C, n = 5
# Procedure: The Thioflavin T (ThT) assay is commonly used for the visualization of α-syn fibrilization, since the dye ThT is able to bind to the amyloidogenic cross-β-sheet proportions of fibril structures. Recombinant α-syn was thawed on ice and centrifuged for 30 min at 21,000 × g and 4 °C. The concentration of the supernatant was determined as described previously. Lyophilized D-peptides were thawed at RT for 1 h and dissolved in 500 µl PBS pH 7.4. After centrifugation for 30 min at 21,000 × g the supernatant concentration was determined by UV–vis using the corresponding extinction coefficient at A280. […] ThT fluorescence was monitored with bottom optics at λex = 448 nm and λem = 482 nm in a fluorescence plate reader with orbital averaging on 3 mm (Clariostar or Polarstar Optima, BMG labtech, GE). […]
# ThT assay was used for different purposes. […] Lag-time and t½ were calculated as described previously. […]
# (§1) ThT fluorescence progression was measured in a 96-well non-binding half-area plate (Corning, USA) with a FLUOStar platereader (BMG labtech, GE) at λex = 448 nm and λem = 482 nm. […] 10 µM α-syn monomer was incubated with 5, 10 and 20 µM peptide at 37 °C, adding one borosilicate glass bead per well (d = 3.0 mm, Hilgenberg, GE) with continuous orbital shaking at 300 rpm in between reads. […]
# For each fit, x ½, lag-time and steady state response was determined in order to calculate their mean value for each condition. […]
# [2] = test system: small α-syn PFF seeds; assay: Seeded ThT aggregation assay; assay type: biochemical; conditions: then 20 µM α-syn monomer, n = 3
# Procedure: The Thioflavin T (ThT) assay is commonly used for the visualization of α-syn fibrilization, since the dye ThT is able to bind to the amyloidogenic cross-β-sheet proportions of fibril structures. Recombinant α-syn was thawed on ice and centrifuged for 30 min at 21,000 × g and 4 °C. The concentration of the supernatant was determined as described previously. Lyophilized D-peptides were thawed at RT for 1 h and dissolved in 500 µl PBS pH 7.4. After centrifugation for 30 min at 21,000 × g the supernatant concentration was determined by UV–vis using the corresponding extinction coefficient at A280. All ThT assay experiments were performed at 37 °C with 15 µM ThT and 0.05% sodium azide (w/v) in PBS pH 7.4 if not otherwise stated. ThT fluorescence was monitored with bottom optics at λex = 448 nm and λem = 482 nm in a fluorescence plate reader with orbital averaging on 3 mm (Clariostar or Polarstar Optima, BMG labtech, GE). Prior to measurement start, 120 µl sample solution was transferred to a non-binding 96-half area well plate with transparent flat bottom (Corning, USA). One borosilicate glass bead (d = 3.0 mm, Hilgenberg, GE) was added to each well for all de novo aggregation assays. For seeded aggregation assays, no bead was used, and samples were incubated under quiescent conditions. Wells that surrounded the sample wells were filled with the same volume of buffer to improve heat distribution. Experiments were performed with five replicates (n = 5) if not otherwise stated.
# (§2) ThT assay was used for different purposes. […] Lag-time and t½ were calculated as described previously. […] Measurements were taken every 5 min (n = 3).
# small α-syn PFF seeds were prepared as described previously with some modifications. First, insoluble PFF were produced by incubation of 300 µM recombinant α-syn in a LoBind reaction tube (Eppendorf GmbH, GE) with one borosilicate glass bead (d = 3.0 mm; Hilgenberg, DE) in 20 mM NaPi, pH 7.0, 150 mM NaCl, 0.05% (w/v) sodium azide for one week at 37 °C. The insoluble PFF were harvested by ultracentrifugation at 100,000 × g for 30 min at 4 °C, and the pellet was washed several times with 20 mM NaPi, pH 7.0, 150 mM NaCl. The monomer equivalent concentration was determined by measuring the α-syn concentration in the supernatant after the first centrifugation and subtracting it from the start concentration for fibrilization. […]
# as §1
# [3] = test system: PC12 cells; assay type: cell-based; conditions: for PC12 cell viability with PFF: 24 h
# Procedure: PC12 cells (Leibniz Institute DSMZ, GE) were cultivated on collagen A-coated (Biochrom GmbH, GE) tissue culture flasks in RPMI 1640 medium supplemented with 5% fetal calf serum and 10% horse serum in a 95% humidified atmosphere with 5% CO2 at 37 °C. 10,000 cells per well in a volume of 100 µl were seeded on collagen A-coated 96-well plates (Thermo Fisher Scientific, USA) and were incubated for 24 h at 37 °C and 300 rpm in a thermo cycler. […] In addition, 15 µM of the peptides alone, cell media, buffer without peptides and 0.1% Triton X-100 (cytotoxic compound) served as controls. After further incubation in a 95% humidified atmosphere with 5% CO2 at 37 °C for 24 h, cell viability was measured using the Cell Proliferation Kit I (MTT) (Roche Applied Science, CH) according to the manufacturer’s protocol. The MTT formazan product was quantified by measuring the absorbance at 570 nm corrected by subtraction of the absorbance at 660 nm in a FLUOStar Optima plate reader (BMG Labtech, GE). All results were normalized to untreated cells grown in medium only. Test on significance was performed using one-way ANOVA with Bonferroni post hoc analysis (OriginPro 2020, OriginLab, USA; n = 4).
# Test on significance was performed using one-way ANOVA with Bonferroni post hoc analysis: * […], *** p ≤ 0.01. Mean data are shown with ±SD (n = 4). While the cell viability was reduced by 50 % in the presence of 30 nM soluble small α-syn PFF alone, no toxic effect of the compounds on PC12 was observed. […] Thus, similar cell viability saving effects were found for SVD-1a using a 30-fold lower concentration.
# [4] = test system: α-syn (1–108); assay: De novo ThT aggregation of 1-108 truncated α-syn; assay type: biochemical; conditions: 25 µM 1-108 α-syn, equimolar peptide
# Procedure: as §2
# Aggregation curves were fitted with a symmetric Boltzmann fit and the steady state signal was normalized to 1.
SMILES,"inhibition of de novo aggregation ([1]; 10 µM α-syn, 5, 10 and 20 µM peptide, glass bead, continuous shaking 300 rpm)","inhibition of seeded aggregation ([2]; 50 nM small α-syn PFF pre-incubated 20 h with peptide, 37 °C quiescent)",PC12 cell viability with PFF ([3]; 15 µM),inhibition of α-syn (1–108) aggregation [4],"inhibition of de novo aggregation at twofold molar excess ([1]; 10 µM α-syn, 20 µM peptide)","effect on elongation rate ([2]; 5 µM peptide, 50 nM PFF pre-incubated 20 h)","inhibition of seeding ([2]; 20 µM or higher peptide (20 µM for SVD-1_scrambled+5r), 50 nM PFF pre-incubated 20 h)",fold lower concentration for similar cell viability saving effect vs SVD-1 ([3]; 0.5 µM SVD-1a vs 15 µM SVD-1),PC12 cell viability with PFF ([3]; 0.5 µM)
CC[C@@H](C)[C@@H](NC(=O)[C@@H](Cc1c[nH]cn1)NC(=O)[C@@H](CCC(=O)O)NC(=O)[C@@H](CCC(N)=O)NC(=O)[C@@H](Cc1c[nH]c2ccccc12)NC(=O)[C@@H](Cc1ccc(O)cc1)NC(=O)[C@H](NC(=O)[C@@H](CCC(=O)O)NC(=O)[C@@H](Cc1c[nH]cn1)NC(=O)[C@H](NC(=O)[C@H]1CCCN1C(=O)[C@@H](CCSC)NC(=O)[C@H](N)CCCCN)[C@H](C)O)[C@H](C)O)C(=O)N[C@H](Cc1c[nH]c2ccccc12)C(=O)N[C@H](Cc1c[nH]cn1)C(=O)N[C@H](C)C(N)=O [SVD-1] (H-[dK][dM][dP][dT][dH][dE][dT][dY][dW][dQ][dE][dH][dI][dW][dH][dA]-NH2),concentration-dependent delay of aggregation onset as well as by a reduction of steady state levels; also recorded: inhibits primary nucleation of α-syn,significantly decelerate amyloid growth in the seeded environment; also recorded: inhibits elongation and secondary nucleation of α-syn,89%,delay of 1- 108 truncated α-syn aggregation,–,–,–,–,–
CC[C@@H](C)[C@@H](NC(=O)[C@@H](Cc1c[nH]cn1)NC(=O)[C@@H](CCC(=O)O)NC(=O)[C@@H](CCC(N)=O)NC(=O)[C@@H](Cc1c[nH]c2ccccc12)NC(=O)[C@@H](Cc1ccc(O)cc1)NC(=O)[C@H](NC(=O)[C@@H](CCC(=O)O)NC(=O)[C@@H](Cc1c[nH]cn1)NC(=O)[C@H](NC(=O)[C@H]1CCCN1C(=O)[C@@H](CC(C)C)NC(=O)[C@H](N)CCCNC(=N)N)[C@H](C)O)[C@H](C)O)C(=O)N[C@H](Cc1c[nH]c2ccccc12)C(=O)N[C@H](Cc1c[nH]cn1)C(=O)N[C@H](C)C(=O)N[C@H](CCCNC(=N)N)C(=O)N[C@H](CCCNC(=N)N)C(=O)N[C@H](CCCNC(=N)N)C(=O)N[C@H](CCCNC(=N)N)C(=O)N[C@H](CCCNC(=N)N)C(N)=O [SVD-1a] (H-[dR][dL][dP][dT][dH][dE][dT][dY][dW][dQ][dE][dH][dI][dW][dH][dA][dR][dR][dR][dR][dR]-NH2),–,–,–,delay of 1- 108 truncated α-syn aggregation,completely inhibited,a reduction of the elongation rate was observed,complete inhibition of the seeding capacity,30 -fold,82%
